According to publication PMC12507957 (Drug Delivery and Translational Research, 2025):
Read-outs that look alike come from different tables or passages of the source.

Test: Mass balance studies after 48-h skin permeation of MTG in solvents
Type: in vitro ADME, porcine
Settings: for recovery at 48 h, 5 %w/v: pig
Method: The in vitro permeation study was performed in triplicate using Franz diffusion cell apparatus with a diffusion area of ~ 0.8 cm^2 and a receptor volume of ~ 3 mL. The porcine skin was thawed at room temperature and cut into an appropriate size before mounting on the Franz diffusion cells. The receptor compartment was filled with PBS containing 0.02%w/v of sodium azide and a selected antioxidant. The Franz diffusion cells were placed into a water bath to maintain the skin temperature at 32 ± 0.5 °C. […] After 48-h permeation studies, the mass balance studies were performed.
Subsequently, the surface of the skin was washed twice with 500 μL of methanol before adding to the same Eppendorf tube containing the cotton buds. The skin was removed from the dissembled Franz diffusion cell and cut into pieces before placing in another Eppendorf tube containing 1 mL of methanol. All samples were vortexed and analysed using HPLC (Sect. HPLC analysis).
Samples were analysed using Shimadzu liquid chromatographic system (Kyoto, Japan) with SPD-20A UV–vis detector set at 254 nm. A reverse phase ZORBAX Eclipse Plus C18 column (Agilent Technologies, 150 × 4.6 mm ID × 3.5 μm) coupled with a C18 guard column (Phenomenex SecurityGuard™, 4 × 3.0 mm ID × 5 μm) was employed as the stationary phase. A gradient elution method with acetonitrile and 0.1%v/v of formic acid as the mobile phase (30:70 to 70:30 (v/v) over 1 min and held until 4 min; then returned to 30:70 (v/v) from 4 to 6 min and held up until 10 min) at a flow rate of 1.2 mL/min was used. The injection volume was set at 100 μL and the total run time was 10 min with a retention time of ~ 4 min.

[1] = 5%w/v MTG in DMSO, receptor PBS with 0.01%w/v ascorbic acid (DMSO-AA), 48 h
[2] = 5%w/v MTG in Labrasol, receptor PBS with 0.01%w/v ascorbic acid (Labrasol-AA), 48 h
[3] = 5%w/v MTG in Labrasol, receptor PBS without ascorbic acid, 48 h
[4] = 5%w/v MTG in Lauroglycol, receptor PBS with 0.01%w/v ascorbic acid (Lauroglycol-AA), 48 h
[5] = 5%w/v MTG in Lauroglycol, receptor PBS without ascorbic acid, 48 h
[6] = 5%w/v MTG in Maisine, receptor PBS with 0.01%w/v ascorbic acid (Maisine-AA), 48 h
[7] = 5%w/v MTG in Maisine, receptor PBS without ascorbic acid, 48 h
[8] = 5%w/v MTG in PG, receptor PBS with 0.01%w/v ascorbic acid (PG-AA), 48 h
[9] = 5%w/v MTG in Transcutol, receptor PBS with 0.01%w/v ascorbic acid (Transcutol-AA), 48 h
[10] = 5%w/v MTG in Transcutol, receptor PBS without ascorbic acid, 48 h

CC[C@@H]1CN2CCc3c([nH]c4cccc(OC)c34)[C@@H]2C[C@@H]1/C(=C\OC)C(=O)OC [MTG, mitragynine]
Permeation (%) [1]: 0.77 ± 0.12%
Skin extraction [1]: 0.91 ± 0.19%
Washing (on skin surface) [1]: 48.69 ± 0.86%
Permeation (%) [2]: 0.08 ± 0.05%
Skin extraction [2]: 3.23 ± 1.80%
Washing (on skin surface) [2]: 70.50 ± 5.24%
Permeation (%) [3]: 0.07 ± 0.07%
Skin extraction [3]: 3.67 ± 0.45%
Washing (on skin surface) [3]: 65.82 ± 5.20%
Permeation (%) [4]: 0.18 ± 0.12%
Skin extraction [4]: 1.96 ± 1.22%
Washing (on skin surface) [4]: 57.28 ± 15.05%
Permeation (%) [5]: 0.04 ± 0.01%
Skin extraction [5]: 0.52 ± 0.38%
Washing (on skin surface) [5]: 66.42 ± 2.26%
Permeation (%) [6]: 0.42 ± 0.13%
Skin extraction [6]: 1.34 ± 0.55%
Washing (on skin surface) [6]: 60.12 ± 1.46%
Permeation (%) [7]: 0.11 ± 0.10%
Skin extraction [7]: 0.45 ± 0.18%
Washing (on skin surface) [7]: 61.67 ± 5.42%
Permeation (%) [8]: 0.30 ± 0.11%
Skin extraction [8]: 1.04 ± 0.20%
Washing (on skin surface) [8]: 45.95 ± 5.07%
Permeation (%) [9]: 0.51 ± 0.22%
Skin extraction [9]: 2.29 ± 0.57%
Washing (on skin surface) [9]: 50.98 ± 9.49%
Permeation (%) [10]: 0.19 ± 0.07%
Skin extraction [10]: 2.08 ± 1.11%
Washing (on skin surface) [10]: 71.94 ± 8.01%
recovery at 48 h, 5 %w/v (5%w/v MTG in DMSO, receptor PBS with 0.01%w/v ascorbic acid (DMSO-AA), 48 h, read-out: Total percentage (mass balance recovery)): 50.7 ± 1.17%
recovery at 48 h, 5 %w/v (5%w/v MTG in Labrasol, receptor PBS with 0.01%w/v ascorbic acid (Labrasol-AA), 48 h, read-out: Total percentage (mass balance recovery)): 75.7 ± 7.09%
recovery at 48 h, 5 %w/v (5%w/v MTG in Labrasol, receptor PBS without ascorbic acid, 48 h, read-out: Total percentage (mass balance recovery)): 70.1 ± 5.72%
recovery at 48 h, 5 %w/v (5%w/v MTG in Lauroglycol, receptor PBS without ascorbic acid, 48 h, read-out: Total percentage (mass balance recovery)): 67.4 ± 2.65%
recovery at 48 h, 5 %w/v (5%w/v MTG in PG, receptor PBS with 0.01%w/v ascorbic acid (PG-AA), 48 h, read-out: Total percentage (mass balance recovery)): 47.6 ± 5.37%
recovery at 48 h, 5 %w/v (5%w/v MTG in Transcutol, receptor PBS without ascorbic acid, 48 h, read-out: Total percentage (mass balance recovery)): 75.4 ± 9.19%
recovery at 48 h, 5 %w/v (Mitragynine recovery in mass balance studies, 5%w/v in single solvent systems): < 80%
